Series [1] deals with T1, Urotensin-2 receptor (Rattus norvegicus) (UniProt P49684).
T1 sequence (whole entry): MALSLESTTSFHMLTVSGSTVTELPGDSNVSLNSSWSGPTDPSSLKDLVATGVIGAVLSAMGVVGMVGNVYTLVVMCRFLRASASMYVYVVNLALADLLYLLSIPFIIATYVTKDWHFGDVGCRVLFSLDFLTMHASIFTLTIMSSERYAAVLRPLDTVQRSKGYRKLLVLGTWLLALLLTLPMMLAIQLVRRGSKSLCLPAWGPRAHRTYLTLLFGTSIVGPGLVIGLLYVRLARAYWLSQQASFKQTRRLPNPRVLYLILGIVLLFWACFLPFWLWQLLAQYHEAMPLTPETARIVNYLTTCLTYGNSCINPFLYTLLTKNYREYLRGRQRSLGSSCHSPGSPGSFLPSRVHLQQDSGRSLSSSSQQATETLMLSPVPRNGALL
Briefly: Competitive antagonist activity at UT receptor in rat aorta assessed as effect on urotensin-2-induced contraction. Type of series: tissue-based.

Series [2] has as its target T2, Urotensin-2 receptor (Homo sapiens) (UniProt Q9UKP6).
T2 sequence (whole entry): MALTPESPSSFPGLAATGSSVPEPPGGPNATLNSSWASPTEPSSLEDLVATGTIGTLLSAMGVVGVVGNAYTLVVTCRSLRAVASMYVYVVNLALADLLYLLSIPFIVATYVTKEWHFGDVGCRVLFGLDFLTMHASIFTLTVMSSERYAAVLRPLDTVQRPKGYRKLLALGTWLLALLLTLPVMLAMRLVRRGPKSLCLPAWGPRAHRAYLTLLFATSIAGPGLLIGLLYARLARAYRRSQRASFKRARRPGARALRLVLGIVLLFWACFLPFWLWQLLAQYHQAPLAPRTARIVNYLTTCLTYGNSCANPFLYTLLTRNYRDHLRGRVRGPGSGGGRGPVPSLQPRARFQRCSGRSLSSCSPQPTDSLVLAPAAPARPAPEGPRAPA
Briefly: Partial agonist activity at human recombinant UT receptor expressed in CHO-K1 cells assessed as stimulation of intracellular calcium mobilization at 1 uM by FLIPR assay relative to urotensin-2. The class given is functional, cell-based.

The target of series [3] is T2, Urotensin-2 receptor (Homo sapiens). Briefly: Partial agonist activity at human recombinant UT receptor expressed in CHO-K1 cells assessed as stimulation of intracellular calcium mobilization at 10 uM by FLIPR assay relative to urotensin-2. The class given is functional, cell-based.
The target in series [4] is T1, Urotensin-2 receptor (Rattus norvegicus). Briefly: Agonist activity at UT receptor in rat aorta assessed as contraction relative to urotensin-2. The class given is tissue-based.
Series [5] concerns the target T2, Urotensin-2 receptor (Homo sapiens). Kind of series: Partial agonist activity at human recombinant UT receptor expressed in CHO-K1 cells assessed as stimulation of intracellular calcium mobilization by FLIPR assay. Type of series: functional, cell-based.
For series [6], the target named is T1, Urotensin-2 receptor (Rattus norvegicus). Briefly: Agonist activity at UT receptor in rat aorta assessed as contraction. The class given is tissue-based.
A further series addresses T3, Urotensin-2 receptor (Homo sapiens, UniProt Q9UKP6).
T3 sequence (Q9UKP6 whole entry): T2 sequence (whole entry)
Briefly: Displacement of [125I]urotensin-2 from human recombinant UT receptor expressed in CHO-K1 cells by scintillation counting method. The class given is cell-based.

The nature of series [7]: Stability in 25% fetal calf serum assessed as parent compound remaining at 80 uM at 37 degC after 36 hrs by RP-HPLC-UV based detection assay. The settings on record: cattle, read-out: Stability. The class given is ADME, Bos taurus.
A short description of series [8]: Stability in 25% fetal calf serum assessed as parent compound remaining at 80 uM at 37 degC after 16 hrs by RP-HPLC-UV based detection assay. Type of series: ADME, Bos taurus. The settings on record: cattle, read-out: Stability.

The source made the active and inactive calls. The calls are words filed in the database; no cut-off is given here. Peptide text beside a SMILES is read from it. Bounds are passed on as bounds.

Consider `CC(C)[C@H](NC(=O)[C@@H]1CSSC(C)(C)[C@@H](NC(=O)[C@@H](N)CC(=O)O)C(=O)N[C@@H](Cc2ccccc2)C(=O)N[C@H](Cc2c[nH]c3ccccc23)C(=O)N[C@@H](CCCN)C(=O)N[C@@H](Cc2ccc(O)cc2)C(=O)N1)C(=O)O` (HELM PEPTIDE1{D.[CC(C)(S[*:3])[C@@H](N[*:1])C(=O)[*:2]].F.[dW].[Orn].Y.C.V}$PEPTIDE1,PEPTIDE1,2:R3-7:R3$$$V2.0), for which, in series [1], the pKb came to 8.32. In addition, the Efficacy in series [2] turned out to be 43.3%; in [3], 46.2%. The Emax in series [4] turned out to be 0%. Besides, the result in series [5] was Active. Also, the pEC50 result in series [6] was “inactive”.

Consider `CC(C)[C@H](NC(=O)[C@@H]1CSSC(C)(C)[C@H](NC(=O)[C@@H](N)CC(=O)O)C(=O)N[C@@H](Cc2ccccc2)C(=O)N[C@H](Cc2c[nH]c3ccccc23)C(=O)N[C@@H](CCCN)C(=O)N[C@@H](Cc2ccc([N+](=O)[O-])cc2)C(=O)N1)C(=O)O`, for which the negative-log Kb (pKb) in [1] is 8.12. Besides, the Ki at Urotensin-2 receptor was 17 nM. Also, the Efficacy in [2] was determined as 56.5%; in series [3] it was 61.2%. For the same compound, the maximum response (Emax) in series [4] was 0%. In series [5], the outcome was Active. Besides, the pEC50 entry in series [6] is “inactive”.

Turning to `CC(C)[C@H](NC(=O)[C@@H]1CSSC(C)(C)[C@H](NC(=O)[C@@H](N)CC(=O)O)C(=O)N[C@@H](Cc2ccccc2)C(=O)N[C@H](Cc2c[nH]c3ccccc23)C(=O)N[C@@H](CCCN)C(=O)N[C@@H](Cc2ccc(C#N)cc2)C(=O)N1)C(=O)O`, the remaining at 36 h, 80 µM in series [7] was above 50%. In series [1], the negative logarithm of the Kb (pKb) is 8.15. Further, the inhibitory constant (Ki) at Urotensin-2 receptor is 12 nM. Further, the Efficacy in series [2] was 61.4%; in series [3], 61.7%. Besides, the maximal response (Emax) in series [4] came out at 0%. Also, the result in series [5] was Active. Besides, the pEC50 result in series [6] is “inactive”. Besides, in series [8], the remaining at 16 h, 80 µM was above 70%.

(Values after ChEMBL document CHEMBL3352762 (J Med Chem, 2014).)
